Test results taken from paper PMC11845477, “Exploring the principles behind antibiotics with limited resistance” (Nature Communications, 2025).
Where two headings read alike, the source gives them in different places. Where a SMILES comes first, the peptide text is derived from it. Bridges are numbered along the chain shown (N, C = ends). [ ]: non-standard residue; d: D form. The star is where a group is joined. X2 = CC[C@H](C)CCCCC(=O)*; Dab = NCC[C@H](N)C(=O)O

Experiments:
[1] = system: K. pneumoniae ATCC 10031 (SEN) and K. pneumoniae ATCC 700603 (MDR); assay: Frequency-of-resistance (FoR) assay, relative MIC of mutants; assay type: cell-based, Klebsiella pneumoniae; details: for MIC: Klebsiella pneumoniae
Experimental: The susceptibility of antibiotics to resistance development was evaluated in two strains of each bacterial species: a multidrug-resistant strain and an antibiotic-sensitive strain of Escherichia coli, Klebsiella pneumoniae, Acinetobacter baumannii, and Pseudomonas aeruginosa. To explore first-step resistance, we previously used a standard protocol for spontaneous frequency-of-resistance analysis (FoR assay) at multiple concentrations of each antibiotic[10],[28],[31]–[33]. […] For all other combinations, approximately 10^10 bacterial cells were exposed to one of each antibiotic on agar plates for two days at concentrations where the given strain is susceptible. We examined resistance levels by contrasting the minimum inhibitory concentration (MICs) of the mutated strains to the original wild-type bacterial strain (i.e., relative MIC).
To estimate the frequency of spontaneous mutations that confer resistance in a microbial population, we conducted a frequency of resistance (FoR) assay following established protocols[10],[31]–[33]. […] Prior to plating, bacteria were grown overnight in MHB medium at 37 °C and 250 RPM, then centrifuged and washed in MHB. All experiments were performed in triplicate, and plates were incubated at 37 °C for 48 hours. Total colony-forming units (CFUs) were determined by plating appropriate dilutions onto antibiotic-free MHB agar. Resistance frequencies were calculated by dividing the number of resistant colonies by the initial viable cell count. From the plates with the highest antibiotic concentration, ten colonies were selected for MIC determination and whole-genome sequencing.
(§1) A robotic liquid handling system was used to automatically prepare a 11 to 16-step serial dilution in 384-well microtiter plates (Greiner). A final concentration of 5 × 10^5 bacterial cells per mL were inoculated into each well containing 60 µL MHB medium. Bacterial cultures were incubated at 37 °C with continuous shaking (Infors shaker, 900 rpm with 3 mm throw) for 18 hours (2 replicates from each). Cell growth was monitored by measuring the optical density (OD600 values, using Biotek Synergy microplate reader). MIC was defined as the antibiotic concentration of complete growth inhibition (i.e., OD600 < 0.05). Relative MIC was calculated as follows:1 relativeMIC=MICevolved/MICancestor […]
Supplementary Figure 3. Resistance levels following the frequency of resistance assay across bacterial strains. The level of resistance was measured as the fold change in relative MIC between evolved and ancestral strains. Data are grouped by bacterial strain (A. baumannii (AB), E. coli (EC), K. pneumoniae (KP), and P. aeruginosa (PA)) and categorized as either multidrug-resistant (MDR) or sensitive (SEN). Each data point represents a laboratory evolved line, and boxplots show the median, first and third quartiles, with whiskers indicating the 5th and 95th percentiles. […]
(§2) analysis was performed using two-sided Dunn’s post-hoc test with Benjamini-Hochberg correction for multiple comparisons (**/ * indicates p < 0.01/ 0.05). For detailed information on antibiotic and bacterial species, see Supplementary Table 1. For mode of action groups, refer to Table 1. Source data are provided as a Source Data file.

[2] = system: A. baumannii ATCC 17978 (SEN) and A. baumannii ATCC BAA-1605 (MDR); assay: Adaptive laboratory evolution (ALE), relative MIC of evolved lines; assay type: cell-based, Acinetobacter baumannii
Excerpt: Using the same set of bacterial strains, we initiated adaptive laboratory evolution with the aim to maximize the level of antibiotic resistance in the populations achieved during a longer, but fixed time period.
An established protocol for adaptive laboratory evolution[46],[73] was followed to propagate populations with the highest resistance levels. Starting with an antibiotic concentration that caused approximately 50% growth inhibition, ten parallel populations for each antibiotic-ancestor strain combination were grown for 72 hours at 37 °C with continuous shaking (300 RPM). MHB broth medium was used unless stated otherwise. After each incubation, 20 µl of each culture was transferred to four new wells containing fresh medium with increasing antibiotic concentrations (0.5×, 1×, 1.5×, and 2.5× the previous concentration) in a chessboard layout to monitor potential cross-contamination. Growth was monitored by measuring OD600 using a Biotek Synergy 2 microplate reader, and only populations grown in the highest drug concentration with an OD600 > 0.2 were transferred further.
as §1
Supplementary Figure 4. Resistance levels following adaptive laboratory evolution across bacterial strains. The level of resistance was measured as the fold change in relative MIC between evolved and ancestral strains after ~60 days of adaptive laboratory evolution. Data are grouped by bacterial strain (A. baumannii (AB), E. coli (EC), K. pneumoniae (KP), and P. aeruginosa (PA)) and categorized as either multidrug-resistant (MDR) or sensitive (SEN). Each data point represents a laboratory evolved line, and boxplots show the median, first and third quartiles, with whiskers indicating the 5th and 95th percentiles.
as §2, with “Statistical analysis” for “analysis”, “(****/ ***/ **/” for “(**/”, “< 0.0001/ 0.001/” for “<”

[3] = read-out: MIC of evolved line, Klebsiella pneumoniae ATCC 10031 (KP-SEN), evolved line 1
[4] = read-out: MIC of evolved line, Klebsiella pneumoniae ATCC 700603 (KP-MDR), evolved line 1
[5] = read-out: MIC of evolved line, Klebsiella pneumoniae ATCC 700603 (KP-MDR), evolved line 2

CN[C@@H]1[C@@H](O[C@H]2O[C@H](CO)[C@@H](N)[C@H](O)[C@H]2O)OC2C[C@@H](N)[C@@H](O[C@H]3[C@H](O)[C@@H](O)[C@H](N)C[C@@H]3N)OC2[C@@H]1O (some centres unmarked) [Apramycin]
16: Relative MIC ([2]; AB-SEN (ATCC 17978), evolved line 4, MIC of evolved line / MIC of ancestor) | Relative MIC ([2]; AB-SEN (ATCC 17978), evolved line 6, MIC of evolved line / MIC of ancestor) | Relative MIC ([2]; Acinetobacter baumannii ATCC 17978 (AB-SEN), evolved line 4) | Relative MIC ([2]; Acinetobacter baumannii ATCC 17978 (AB-SEN), evolved line 6)
32: Relative MIC ([2]; AB-SEN (ATCC 17978), evolved line 1, MIC of evolved line / MIC of ancestor) | Relative MIC ([2]; AB-SEN (ATCC 17978), evolved line 3, MIC of evolved line / MIC of ancestor) | Relative MIC ([2]; AB-SEN (ATCC 17978), evolved line 5, MIC of evolved line / MIC of ancestor) | Relative MIC ([2]; AB-SEN (ATCC 17978), evolved line 8, MIC of evolved line / MIC of ancestor) | Relative MIC ([2]; AB-SEN (ATCC 17978), evolved line 9, MIC of evolved line / MIC of ancestor) | Relative MIC ([2]; AB-SEN (ATCC 17978), evolved line 10, MIC of evolved line / MIC of ancestor) | Relative MIC ([2]; Acinetobacter baumannii ATCC 17978 (AB-SEN), evolved line 1) | Relative MIC ([2]; Acinetobacter baumannii ATCC 17978 (AB-SEN), evolved line 3) | Relative MIC ([2]; Acinetobacter baumannii ATCC 17978 (AB-SEN), evolved line 5) | Relative MIC ([2]; Acinetobacter baumannii ATCC 17978 (AB-SEN), evolved line 8) | Relative MIC ([2]; Acinetobacter baumannii ATCC 17978 (AB-SEN), evolved line 9) | Relative MIC ([2]; Acinetobacter baumannii ATCC 17978 (AB-SEN), evolved line 10)
1: Relative MIC ([1]; Klebsiella pneumoniae ATCC 700603 (KP-MDR), evolved line 3 versus ancestor)
16 µg/mL: MIC [1, 3] | MIC ([1]; read-out: MIC of evolved line, Klebsiella pneumoniae ATCC 10031 (KP-SEN), evolved line 2)
8: Relative MIC ([1]; Klebsiella pneumoniae ATCC 10031 (KP-SEN), evolved line 1 versus ancestor) | Relative MIC ([1]; Klebsiella pneumoniae ATCC 10031 (KP-SEN), evolved line 2 versus ancestor)
64: Relative MIC ([2]; AB-SEN (ATCC 17978), evolved line 2, MIC of evolved line / MIC of ancestor) | Relative MIC ([2]; AB-SEN (ATCC 17978), evolved line 7, MIC of evolved line / MIC of ancestor) | Relative MIC ([2]; Acinetobacter baumannii ATCC 17978 (AB-SEN), evolved line 2) | Relative MIC ([2]; Acinetobacter baumannii ATCC 17978 (AB-SEN), evolved line 7)
8 µg/mL: MIC [1, 4] | MIC [1, 5]
1.806: Relative MIC (log10) ([2]; AB-SEN (Acinetobacter baumannii ATCC 17978), evolved line 2 adapted to the named antibiotic)
1.505: Relative MIC (log10) ([2]; AB-SEN (Acinetobacter baumannii ATCC 17978), evolved line 3 adapted to the named antibiotic) | Relative MIC (log10) ([2]; AB-SEN (Acinetobacter baumannii ATCC 17978), evolved line 9 adapted to the named antibiotic) | Relative MIC (log10) ([2]; AB-SEN (Acinetobacter baumannii ATCC 17978), evolved line 10 adapted to the named antibiotic)
2: Relative MIC ([1]; Klebsiella pneumoniae ATCC 10031 (KP-SEN), evolved line 3 versus ancestor) | Relative MIC ([1]; Klebsiella pneumoniae ATCC 700603 (KP-MDR), evolved line 1 versus ancestor) | Relative MIC ([1]; Klebsiella pneumoniae ATCC 700603 (KP-MDR), evolved line 2 versus ancestor)
1.204: Relative MIC (log10) ([2]; AB-SEN (Acinetobacter baumannii ATCC 17978), evolved line 6 adapted to the named antibiotic)

COc1c(N2C[C@@H]3CCCN[C@@H]3C2)c(F)cc2c(=O)c(C(=O)O)cn(C3CC3)c12 [Moxifloxacin]
0.25 µg/mL: MIC [1, 3]
4 µg/mL: MIC [1, 4] | MIC [1, 5] | MIC ([1]; read-out: MIC of evolved line, Klebsiella pneumoniae ATCC 700603 (KP-MDR), evolved line 3)

CC[C@H](C)CCCCC(=O)N[C@@H](CCN)C(=O)N[C@H](C(=O)N[C@@H](CCN)C(=O)N[C@H]1CCNC(=O)[C@H]([C@@H](C)O)NC(=O)[C@H](CCN)NC(=O)[C@H](CCN)NC(=O)[C@H](CC(C)C)NC(=O)[C@@H](Cc2ccccc2)NC(=O)[C@H](CCN)NC1=O)[C@@H](C)O [Polymyxin B] (X2-[Dab]T[Dab][Dab][Dab][dF]L[Dab][Dab]T; lactam 4-C (inferred); N-terminus assumed)
2.709 log10: Relative MIC (log10) ([2]; AB-SEN (Acinetobacter baumannii ATCC 17978), evolved line 1) | Relative MIC (log10) ([2]; AB-SEN (Acinetobacter baumannii ATCC 17978), evolved line 2) | Relative MIC (log10) ([2]; AB-SEN (Acinetobacter baumannii ATCC 17978), evolved line 4) | Relative MIC (log10) ([2]; AB-SEN (Acinetobacter baumannii ATCC 17978), evolved line 6)
3.0103 log10: Relative MIC (log10) ([2]; AB-MDR (Acinetobacter baumannii ATCC BAA 1605), evolved line 4) | Relative MIC (log10) ([2]; AB-MDR (Acinetobacter baumannii ATCC BAA 1605), evolved line 5) | Relative MIC (log10) ([2]; AB-MDR (Acinetobacter baumannii ATCC BAA 1605), evolved line 6) | Relative MIC (log10) ([2]; AB-MDR (Acinetobacter baumannii ATCC BAA 1605), evolved line 7) | Relative MIC (log10) ([2]; AB-MDR (Acinetobacter baumannii ATCC BAA 1605), evolved line 9)
2.408 log10: Relative MIC (log10) ([2]; AB-SEN (Acinetobacter baumannii ATCC 17978), evolved line 9)

POL7306
32: Relative MIC ([2]; ALE, Acinetobacter baumannii ATCC 17978 (AB-SEN), evolved line 2) | Relative MIC ([2]; ALE, Acinetobacter baumannii ATCC 17978 (AB-SEN), evolved line 6) | Relative MIC ([2]; ALE, Acinetobacter baumannii ATCC 17978 (AB-SEN), evolved line 10) | Relative MIC ([2]; ALE, Acinetobacter baumannii ATCC BAA 1605 (AB-MDR), evolved line 9)
16: Relative MIC ([2]; ALE, Acinetobacter baumannii ATCC 17978 (AB-SEN), evolved line 3) | Relative MIC ([2]; ALE, Acinetobacter baumannii ATCC BAA 1605 (AB-MDR), evolved line 2) | Relative MIC ([2]; ALE, Acinetobacter baumannii ATCC BAA 1605 (AB-MDR), evolved line 3) | Relative MIC ([2]; ALE, Acinetobacter baumannii ATCC BAA 1605 (AB-MDR), evolved line 4) | Relative MIC ([2]; ALE, Acinetobacter baumannii ATCC BAA 1605 (AB-MDR), evolved line 5) | Relative MIC ([2]; ALE, Acinetobacter baumannii ATCC BAA 1605 (AB-MDR), evolved line 7) | Relative MIC ([2]; ALE, Acinetobacter baumannii ATCC BAA 1605 (AB-MDR), evolved line 10)
8: Relative MIC ([2]; ALE, Acinetobacter baumannii ATCC BAA 1605 (AB-MDR), evolved line 8)
256: Relative MIC ([2]; ALE, Acinetobacter baumannii ATCC 17978 (AB-SEN), evolved line 1) | Relative MIC ([2]; ALE, Acinetobacter baumannii ATCC 17978 (AB-SEN), evolved line 9)
2: Relative MIC ([2]; ALE, Acinetobacter baumannii ATCC 17978 (AB-SEN), evolved line 4) | Relative MIC ([2]; ALE, Acinetobacter baumannii ATCC 17978 (AB-SEN), evolved line 7) | Relative MIC ([2]; ALE, Acinetobacter baumannii ATCC 17978 (AB-SEN), evolved line 8) | Relative MIC ([2]; ALE, Acinetobacter baumannii ATCC BAA 1605 (AB-MDR), evolved line 1) | Relative MIC ([2]; ALE, Acinetobacter baumannii ATCC BAA 1605 (AB-MDR), evolved line 6)
